In the NIST ThermoML archive (doi:10.1016/j.jct.2016.02.009):

Test: molar heat capacity at constant pressure
Details: 101.33 kPa, Crystal 2, Small (less than 1 g) adiabatic calorimetry

CCCCCCCCCCCCCCn1cc[n+](C)c1.O=S(=O)([N-]S(=O)(=O)C(F)(F)F)C(F)(F)F
Details	molar heat capacity at constant pressure [J/K/mol]
4.89 K	3.21
5 K	3.43
5.1 K	3.64
5.39 K	4.23
5.69 K	4.88
6 K	5.63
6.34 K	6.47
6.73 K	7.47
7.11 K	8.54
7.5 K	9.67
7.9 K	10.86
8.3 K	12.12
8.7 K	13.43
9.11 K	14.79
9.52 K	16.21
9.93 K	17.69
10 K	17.94
10.45 K	19.63
11.1 K	22.1
11.75 K	24.67
12.39 K	27.32
13.04 K	30.06
13.7 K	32.85
14.36 K	35.72
15 K	38.56
15.02 K	38.63
15.8 K	42.14
16.7 K	46.22
17.61 K	50.37
18.51 K	54.57
19.42 K	58.74
20 K	61.41
20.33 K	62.84
21.54 K	68.49
23.07 K	75.56
24.61 K	82.47
25 K	84.18
26.14 K	89.18
27.68 K	95.96
29.23 K	102.6
30 K	105.9
30.94 K	110.1
32.82 K	117.9
34.72 K	125.4
35 K	126.4
36.61 K	132.8
38.5 K	140.1
40 K	145.8
40.39 K	147.2
42.38 K	154.5
44.49 K	162.2
45 K	164.1
46.6 K	169.8
48.71 K	177.1
50 K	181.5
50.83 K	184.3
52.96 K	191.2
55.08 K	198
57.2 K	204.8
59.33 K	211.5
60 K	213.6
61.45 K	218
63.59 K	224.5
65.72 K	230.7
67.86 K	236.8
70 K	242.6
70.01 K	242.5
72.16 K	248.4
74.3 K	254.1
76.46 K	260.1
78.61 K	266.1
80 K	269.2
80.77 K	271.8
81.2 K	272.4
82.94 K	276.6
83.19 K	277.4
85.13 K	281.8
85.17 K	281.5
87.16 K	286.5
89.15 K	291.4
90 K	293.7
91.14 K	296.2
93.13 K	301
95.13 K	305.5
97.13 K	310.1
99.14 K	314.6
100 K	316.7
101.15 K	319.3
103.16 K	324
105.16 K	328.1
107.17 K	332.6
109.18 K	336.8
110 K	338.4
111.2 K	340.6
113.23 K	345
115.25 K	349.2
117.27 K	353.4
119.3 K	357.4
120 K	358.8
121.32 K	361.5
123.35 K	365.5
124.9 K	368.4
125.83 K	370.4
127.42 K	373.3
128.64 K	376
129.89 K	378.2
130 K	378.6
131.38 K	381.2
132.35 K	383
134.13 K	386.5
134.81 K	387.8
136.88 K	391.8
137.28 K	392.5
139.62 K	397
139.75 K	397.2
140 K	397.8
142.22 K	402.1
142.37 K	402.3
144.69 K	406.6
145.12 K	407.7
147.16 K	411.2
147.86 K	412.6
149.63 K	415.9
150 K	416.6
150.61 K	418
152.1 K	420.5
153.36 K	423.1
154.57 K	425.1
156.12 K	428.1
157.05 K	429.7
158.87 K	433.3
159.52 K	434.5
160 K	435.3
161.63 K	438.6
161.99 K	439.1
164.38 K	443.7
164.46 K	443.6
166.93 K	448.2
167.13 K	448.7
169.4 K	453
169.88 K	453.9
170 K	454.1
171.87 K	457.5
172.63 K	459.1
174.33 K	462.3
175.38 K	464.4
176.79 K	467
178.12 K	469.7
179.25 K	471.5
